# Laboratory results from patent US20180110762A1, “Compositions Methods for Treating Chronic Kidney Disease” (Merck Sharp & Dohme Corp, priority 2015, published 2018).
# Tests used:
# human podocytes = assay: Oris cell migration assay, podocyte motility, Compound A alone, vitronectin coated plate; format: cell-based; settings: for % migrated cells vs control cells: 48 h, VN plate
# Description: The effects of Compound A on podocyte motility were evaluated using Oris cell migration assay kit in 96-well plates (coated with either vitronectin or fibronectin). The Oris™ Cell Migration Assay is designed with a unique cell seeding stopper or biocompatible gel, detection mask, and stopper tool. These unique plate designs generate highly reproducible results using a microscope, digital imaging system. 7 to 10-day differentiated human podocytes (100 ul of 50,000 cells/ml) were seeded in each well of the ORIS plate. After sitting at room temperature for about 15 minutes, the plate was placed into 37° C. incubator and podocytes were incubated with complete podocyte medium for 24 h. Stoppers from each well (keeping stoppers in 4 wells which were served as time zero control) were carefully removed, medium discarded, and fresh (10% FBS) podocyte medium added to each well. Podocytes were pretreated with Compound A (10 uM to 0.01 nM) for 2 h prior to puromycin animonucleoside (PAN, 30 ug/ml or 15 ug/ml) treatment. Podocytes were then treated with PAN in the presence or absence of Compound A at different concentrations (ranging from 10 uM to 0.01 nM) in 10% FBS medium for 48 h. Podocytes were then fixed with 4% paraformaldehyde in PBS for 30 minutes (adding 50 ul to each well). After discarding the fixative, podocytes were stained with Hoechst 33342 (stock […] working concentration at 5 uM) for 30 min. Podocytes were then washed with PBS three times. Finally, after adding 100 ul of PBS to each well, plate was sealed with a black cover and kept at 4° C. until image analysis. Images of podocyte motility were captured using Acumen eX3 (manufacturer TTP Labtech Ltd. address: Melbourn Science Park, Melbourn, Hertfordshire SG8 6EE, United Kingdom).
# Effect of Compound A (“A”) alone on human podocyte motility was examined using Oris cell migration assay in vitronectin (VN) coated-96-well plate.
# [1] = molecular target: T1, Human recombinant integrin αvβ1 (Homo sapiens, UniProt P05556+P06756); assay: Thermal shift assay (differential scanning fluorimetry), αvβ1; format: binding; settings: αvβ1, 20 μM Compound A
# T1 construct: purchased R&D Systems
# Description: Differential scanning fluorimetry was performed on a LightCycler 480 II, real-time PCR instrument (Roche Diagnostics). Human recombinant integrins from R&D Systems (αvβ1, αvβ3 and α5β1) were reconstituted at a concentration of […] in assay buffer (20 mM HEPES, pH=7.3, 100 mM NaCl, 1 mM MgCl2, 1 mM MnCl2) and diluted in assay buffer with Sypro orange (SIGMA) to a final concentration of 400 nM integrin and 5× Sypro orange. A volume of 4.9 μL of this mixture of protein and dye was transferred to a 384-well plate and 100 nL of DMSO or Compound A, dissolved in DMSO, were added using an Echo 555 instrument (Labcyte). The final concentration of Compound A in the assay was 20 μM. After mixing, the assay plate was sealed, spun at 1,000×g for two minutes, and subsequently heated from 25 to 99° C. over the course of 31 min in the LightCycler 480 II instrument. Fluorescence intensity was measured using excitation/emission wavelengths of 465 and 580 nm, respectively. Changes in protein thermal stability (ΔTm) upon compound binding were analyzed by using LightCycler 480 (software provided by the manufacturer).
# [2] = system: male obese ZSF1 rats (diabetic nephropathy model); assay: ZSF1 rat study: kidney mRNA expression of profibrotic genes and integrin beta3; format: in vivo; settings: for Collagen I (a1) expression in the kidney / Collagen III (a1) expression in the kidney / Integrin beta3 expression in the kidney / PAI-1 expression in the kidney: obese ZSF1 rats, week 28
# Description: The effects of Compound A (“A”) on renal function, plasma triglycerides, plasma cholesterol, kidney collagen I, kidney collagen III, renal histology, glomerular filtration rate, fibrosis score, and mRNA gene expression (profibrotic genes and integrin β3) were evaluated in male obese ZSF1 rats (a hybrid F1 of Zucker diabetic fatty rat and spontaneously hypertensive heart failure rat; a diabetic nephropathy model) when administered as in-feed for 28 weeks. Sixty obese male ZSF1 rats were randomized to five groups: Obese control (n=12), Compound A 60 mpk (n=12), Compound A 200 mpk (n=12), Compound A 400 mpk (n=12), Enalapril 10 mpk (n=12); Eight lean male ZSF1 rats were used for normal control. Renal functional changes were monitored by blood and urine analysis following in-feed dosing for 28 weeks. Compound exposure was also monitored during the study.
# postmenopausal women = settings: Phase II study; cited from earlier work
# T1 sequence (P06756 31-992 limits assumed): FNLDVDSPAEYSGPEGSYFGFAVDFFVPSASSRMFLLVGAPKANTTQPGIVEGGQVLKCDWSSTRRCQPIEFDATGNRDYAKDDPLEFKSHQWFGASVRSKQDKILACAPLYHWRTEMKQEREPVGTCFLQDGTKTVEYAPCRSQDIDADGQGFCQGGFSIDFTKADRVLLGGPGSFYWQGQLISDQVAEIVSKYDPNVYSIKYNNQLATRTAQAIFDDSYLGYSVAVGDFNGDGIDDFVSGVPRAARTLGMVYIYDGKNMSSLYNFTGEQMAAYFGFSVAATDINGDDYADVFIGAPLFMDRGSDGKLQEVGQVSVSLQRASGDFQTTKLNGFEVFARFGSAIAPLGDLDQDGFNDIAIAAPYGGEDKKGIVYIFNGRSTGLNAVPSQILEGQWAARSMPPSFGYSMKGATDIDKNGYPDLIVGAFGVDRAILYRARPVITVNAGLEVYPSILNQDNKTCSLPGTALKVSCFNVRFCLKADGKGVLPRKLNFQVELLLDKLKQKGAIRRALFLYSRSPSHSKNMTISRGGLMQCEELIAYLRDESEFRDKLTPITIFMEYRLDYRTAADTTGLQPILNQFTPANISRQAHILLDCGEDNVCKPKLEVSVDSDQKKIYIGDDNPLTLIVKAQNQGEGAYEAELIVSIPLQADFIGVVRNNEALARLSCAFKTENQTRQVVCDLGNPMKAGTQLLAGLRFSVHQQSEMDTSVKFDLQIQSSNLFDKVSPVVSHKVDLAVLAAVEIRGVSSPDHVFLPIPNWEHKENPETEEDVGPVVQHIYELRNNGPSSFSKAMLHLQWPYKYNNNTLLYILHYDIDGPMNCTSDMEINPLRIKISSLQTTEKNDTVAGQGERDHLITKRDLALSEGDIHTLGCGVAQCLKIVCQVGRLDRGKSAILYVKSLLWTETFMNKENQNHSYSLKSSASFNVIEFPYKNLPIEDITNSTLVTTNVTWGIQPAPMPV
# T1 sequence (P05556 21-728 limits assumed): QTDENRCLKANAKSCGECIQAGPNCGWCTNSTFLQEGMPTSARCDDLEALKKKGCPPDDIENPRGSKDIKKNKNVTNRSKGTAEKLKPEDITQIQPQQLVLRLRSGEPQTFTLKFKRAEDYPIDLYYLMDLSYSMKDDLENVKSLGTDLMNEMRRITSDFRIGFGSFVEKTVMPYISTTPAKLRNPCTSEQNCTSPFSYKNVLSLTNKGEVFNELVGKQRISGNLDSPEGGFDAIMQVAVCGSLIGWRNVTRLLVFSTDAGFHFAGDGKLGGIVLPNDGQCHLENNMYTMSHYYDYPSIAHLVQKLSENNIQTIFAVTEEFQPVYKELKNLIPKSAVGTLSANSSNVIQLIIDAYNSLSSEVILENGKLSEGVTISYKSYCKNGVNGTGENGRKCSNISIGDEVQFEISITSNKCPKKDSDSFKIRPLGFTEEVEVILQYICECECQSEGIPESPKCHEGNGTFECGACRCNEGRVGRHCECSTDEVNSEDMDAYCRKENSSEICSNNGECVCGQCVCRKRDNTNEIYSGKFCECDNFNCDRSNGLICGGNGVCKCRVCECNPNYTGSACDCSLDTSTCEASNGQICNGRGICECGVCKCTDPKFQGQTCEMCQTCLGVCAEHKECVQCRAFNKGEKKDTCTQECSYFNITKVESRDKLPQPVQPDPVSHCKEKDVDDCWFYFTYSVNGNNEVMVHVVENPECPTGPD
smiles,measurement,setting,value
"COc1ccc([C@H](CC(=O)O)N2CCN(CCCc3ccc4c(n3)NCCC4)C2=O)cn1 [Compound A, 3-{2-Oxo-3-[3-(5,6,7,8-tetrahydro-[1,8]naphthyridin-2-yl)-propyl]imidazolidin-1-yl}-3 (S)-(6-methoxy-pyridin-3-yl)-propionic acid]","human podocyte motility, Compound A alone vs vehicle","human podocytes; 48 hours, vitronectin coated plate",significant inhibition of motility in a dose-dependent manner
same,% migrated cells vs control cells,human podocytes; A alone 0.01 nM,39.7%
same,% migrated cells vs control cells,human podocytes; A alone 0.0316 nM,43.7%
same,% migrated cells vs control cells,human podocytes; A alone 0.1 nM,38.8%
same,% migrated cells vs control cells,human podocytes; A alone 0.316 nM,38.6%
same,% migrated cells vs control cells,human podocytes; A alone 1 nM,33.4%
same,% migrated cells vs control cells,human podocytes; A alone 3.16 nM,30.6%
same,% migrated cells vs control cells,human podocytes; A alone 10 nM,19.2%
same,% migrated cells vs control cells,human podocytes; A alone 100 nM,20.5%
same,% migrated cells vs control cells,human podocytes; A alone 1 uM,17.9%
same,% migrated cells vs control cells,human podocytes; A alone 10 uM,17.9%
same,ΔTm at 20 µM,[1]; first of two experiments,19.4 °C
same,ΔTm at 20 µM,[1]; second of two experiments,15.6 °C
same,effect on expression of key profibrotic genes and integrin beta3 in the kidney vs obese vehicle,[2]; 200 mpk or 400 mpk at week 28,significantly decreased
same,Collagen I (a1) expression in the kidney,[2]; 200 mpk in-feed,0.79 ± 0.04
same,Collagen III (a1) expression in the kidney,[2]; 200 mpk in-feed,0.60 ± 0.03
same,Integrin beta3 expression in the kidney,[2]; 200 mpk in-feed,0.83 ± 0.03
same,PAI-1 expression in the kidney,[2]; 200 mpk in-feed,0.80 ± 0.03
same,Collagen I (a1) expression in the kidney,[2]; 400 mpk in-feed,0.66 ± 0.02
same,Collagen III (a1) expression in the kidney,[2]; 400 mpk in-feed,0.52 ± 0.01
same,Integrin beta3 expression in the kidney,[2]; 400 mpk in-feed,0.74 ± 0.03
same,PAI-1 expression in the kidney,[2]; 400 mpk in-feed,0.66 ± 0.03
same,bone density,postmenopausal women,increase bone density
